Data published in US11484598B1, “Pleuromulin rhein ester with anti-drug resistant bacteria activity and a method of preparing the same” (XI'AN KANGYUANSHENG BIOMEDICAL TECHNOLOGY CO., LTD., priority 2021, dated 2022).
Converted amounts (≈) assume the structure as drawn.

Experiments:
Type in all cases: cell-based
[1] = system: Carbapenem-resistant Acinetobacter baumannii CR-AB 18-184; assay: MIC by microbroth dilution method, CR-AB 18-184; details: for Minimum bacteriostatic concentration: strain CR-AB 18-184, 37° C., 20-22 hours
Procedure: (§1) The minimal inhibitory concentration (MIC) of the compounds as determined by microbroth dilution method was measured with ceftazidime and vancomycin as positive control.
(§2) The experimental strains included drug-resistant gram-positive bacteria: methicillin-resistant Staphylococcus aureus MRSA 18-575; drug-resistant gram-negative bacteria: multi-drug-resistant Pseudomonas aeruginosa MDR-PA 18-126, 18-756, Carbapenem-resistant Acinetobacter baumannii CR-AB 18-184, 18-560. The experimental strains were all donated by Huashan Hospital Affiliated to Fudan University (Fudan University Antibiotic Research Institute), and used after being identified by conventional methods.
(§3) Preparation of MHB medium: 20.0 g NMB medium was added to 1 L distilled water, boiled until completely dissolved, packed in conical bottles and sterilized at 121° C. for 15 min.
(§4) The experimental strain was cultured to the logarithmic growth phase: under aseptic condition, the experimental strain was inoculated into 100 mL NMB medium and incubated in a constant temperature and humidity incubator at 37° C. for 20-22 hours.
(§5) Preparation of storage solution: weighing the sample to be tested, dissolving it with 1% DMSO solution, preparing a storage solution with a concentration of 2560 μg/mL, weighing a positive reference substance, dissolving it with aseptic distilled water, and configuring a stock solution with a concentration of 2560 μg/mL.
(§6) Preparation of bacterial suspension: under aseptic condition, the experimental strains cultured to logarithmic growth phase were adjusted to 0.5 MCF turbidity standard with MHB medium and diluted according to 1:10, and the bacterial suspension with concentration of 10^6 CFU/mL was prepared for standby.
(§7) Stock solution dilution and inoculation of experimental strains: under aseptic conditions, diluting the stock solution to a solution of 256 μg/mL, taking a sterile 96-well plate, adding 100 μL of MHB medium to each well except for the first and second wells; adding 100 μL of positive control solution to the first well, and adding 100 μL of compound sample solution to the second and third wells; mixing the sample solution in the 3 wells with the medium, and then pipetting 100 μL to the 4th well, and then pipetting 100 μL to the 5th well after mixing, and then diluting to the 9th well in a series of times, and drawing 100 μL from the 9th well and discard, the 10th well is a growth control without drugs; then, adding 100 μL of the above-prepared bacterial suspension to each well to make the final bacterial concentration of each well 5×10^5 CFU/mL; the positive control concentration was 128 μg/mL, the concentrations of the sample solution were 128, 64, 32, 16, 8, 4, 2, 1 μg/mL.
(§8) Incubation: covering the 96-well plate inoculated with the experimental strains, and incubating in a constant temperature and humidity box at 37° C. for 20-22 hours.

[2] = system: Carbapenem-resistant Acinetobacter baumannii CR-AB 18-560; assay: MIC by microbroth dilution method, CR-AB 18-560; details: strain CR-AB 18-560; 37° C., 20-22 hours
Procedure: as §1, §2, §3, §4, §5, §6
as §7, with “μg/mL. […]” for “μg/mL.”

[3] = system: methicillin-resistant Staphylococcus aureus MRSA 18-575; assay: MIC by microbroth dilution method, MRSA 18-575; details: for Minimum bacteriostatic concentration: strain MRSA 18-575, 37° C., 20-22 hours
Procedure: as §1, §2, §3, §4, §5, §6, §7, §8

[4] = system: multi-drug-resistant Pseudomonas aeruginosa MDR-PA 18-756; assay: MIC by microbroth dilution method, MDR-PA 18-756; details: strain MDR-PA 18-756; 37° C., 20-22 hours
Procedure: as §1, §2, §3, §4, §5, §6
as §7, with “μg/mL. […]” for “μg/mL.”

[5] = system: multi-drug-resistant Pseudomonas aeruginosa MDR-PA 18-126; assay: MIC by microbroth dilution method, MDR-PA 18-126; details: for Minimum bacteriostatic concentration: strain MDR-PA 18-126, 37° C., 20-22 hours
Procedure: as §1, §2, §3, §4, §5, §6, §7, §8

drug-resistant bacteria = assay: Antibacterial activity test, summary over all experimental strains; details: text summary of FIG. 1-5 and Table 1
Procedure: as §1, §2, §3
The experimental strain was cultured to the logarithmic growth phase: under aseptic condition, the experimental strain was inoculated into 100 mL NMB medium and incubated in a constant temperature and humidity incubator at 37° C. for 20-22 hours. […]

Row | SMILES | Minimum bacteriostatic concentration [1] [µg/mL] | Minimum bacteriostatic concentration [2] [µg/mL] | Minimum bacteriostatic concentration [3] [µg/mL] | Minimum bacteriostatic concentration [4] [µg/mL] | Minimum bacteriostatic concentration [5] [µg/mL] | MIC ([1]; Acinetobacter baumannii, CR-AB, strain number not stated (64 matches 18-184)) [µg/mL] | MIC ([3]; Staphylococcus aureus, MRSA) [µg/mL] | MIC ([5]; Pseudomonas aeruginosa, MDR-PA, strain number not stated (64 matches 18-126)) [µg/mL] | inhibitory effect on drug-resistant bacteria (drug-resistant bacteria)
1 | CC(C)(O/N=C(\C(=O)N[C@@H]1C(=O)N2C(C(=O)[O-])=C(C[n+]3ccccc3)CS[C@H]12)c1csc(N)n1)C(=O)O [Ceftazidime] | 128 | 128 | 128 | 128 | 128 |  |  |  | 
2 | C=C[C@@]1(C)C[C@H](OC(=O)COC(=O)c2cc(O)c3c(c2)C(=O)c2cccc(O)c2C3=O)[C@]2(C)C3C(=O)CC[C@]3(CC[C@@H]2C)[C@H](C)[C@H]1O (some centres unmarked) [Pleuromulin rhein ester] | 64 | >128 | 64 | >128 | 64 | 64 (≈ 99.3 µM) | 64 (≈ 99.3 µM) | 64 (≈ 99.3 µM) | 
3 | C=C[C@]1(C)C[C@@H](OC(=O)CO)[C@]2(C)[C@H](C)CC[C@]3(CCC(=O)[C@H]32)[C@@H](C)[C@@H]1O [Pleuromulin] | >128 | >128 | >128 | >128 | >128 |  |  |  | no inhibitory effect
4 | O=C(O)c1cc(O)c2c(c1)C(=O)c1cccc(O)c1C2=O [Rhein] | >128 | >128 | >128 | >128 | >128 |  |  |  | no inhibitory effect
5 | CN[C@H](CC(C)C)C(=O)N[C@H]1C(=O)N[C@@H](CC(N)=O)C(=O)N[C@H]2C(=O)N[C@H]3C(=O)N[C@H](C(=O)N[C@H](C(=O)O)c4cc(O)cc(O)c4-c4cc3ccc4O)[C@H](O)c3ccc(c(Cl)c3)Oc3cc2cc(c3O[C@@H]2O[C@H](CO)[C@@H](O)[C@H](O)[C@H]2O[C@H]2C[C@](C)(N)[C@H](O)[C@H](C)O2)Oc2ccc(cc2Cl)[C@H]1O [Vancomycin] |  |  | 512 |  |  |  |  |  | 
